Source: patent publication US8961930B2, “Isatin derivatives for use as in vivo imaging agents” (Imperial Innovations Limited, priority 2008, dated 2015)
One block for each molecule: values may come before it.

Legend:
[1] = molecular target: T1, caspase 6 (Homo sapiens, UniProt P55212); test: Fluorimetric in vitro caspase inhibition assay (7-AMC), caspase 6; format: biochemical; details: recombinant human caspase 6, 10 μM Ac-VEID-AMC; read-out: Caspase EC50 (nM), 1/6/8: caspase 6
T1 construct: purchased Biomol International, UK
T1 sequence (P55212 24-179 limits assumed): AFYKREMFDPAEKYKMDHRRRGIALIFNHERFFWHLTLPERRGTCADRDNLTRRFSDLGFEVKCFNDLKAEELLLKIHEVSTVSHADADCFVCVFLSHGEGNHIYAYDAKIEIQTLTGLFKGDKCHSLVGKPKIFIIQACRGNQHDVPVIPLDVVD
T1 sequence (P55212 194-293 limits assumed): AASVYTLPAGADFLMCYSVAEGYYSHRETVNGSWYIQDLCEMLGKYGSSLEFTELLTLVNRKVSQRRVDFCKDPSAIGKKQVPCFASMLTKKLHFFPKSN
Experimental: (§1) Recombinant human caspases-1, -3, -6, -7, and -8 and their peptide-specific substrates were purchased from Biomol International, UK Inhibition of the recombinant caspases by non-radioactive isatins was assessed using a fluorometric assay that measures the accumulation of a fluorogenic product, 7-amino-4-methylcoumarin (7-AMC). All assays were performed in 96-well plates at a volume of 200 μl per well. The assays were performed at 37° C. in an appropriate reaction buffer as described below for each caspase. For caspase 1, the buffer comprised of 0.1% CHAPS, 100 mM NaCl, 5 mM 2-mercaptoethanol, 100 mM HEPES (pH 7.4), 2 mM EDTA, 10% sucrose, and 10 μM of the peptide substrate Ac-YVAD-AMC. For caspase 3: 20 mM HEPES (pH 7.4), 10% sucrose, 100 mM NaCl, 0.1% CHAPS, 2 m, mM EDTA, and 10 μM Ac-DEVD-AMC. For caspase 6: 20 mM HEPES (pH 7.4), 10% sucrose, 100 mM NaCl, 0.1% CHAPS, 2 mM EDTA, and 10 μM Ac-VEID-AMC. For caspase 7: 20 mM HEPES (pH 7.4), 10% sucrose, 5 mM 2-mercaptoethanol, 100 mM NaCl, 0.1% CHAPS, 2 mM EDTA, 10 μM Ac-DEVD-AMC. For caspase 8: 20 mM HEPES (pH 7.4), 10% sucrose, 100 mM NaCl, 0.1% CHAPS, 2 mM EDTA, and 10 μM Ac-IETD-AMC. The Buffers contained non-radioactive isatins in DMSO at a final concentration of 500, 50, 5 μM; 500, 50, 5 nM; 500, 50, 5 pM; the final concentration of DMSO in all wells was 5% of the total volume. Recombinant caspases were used at 0.5 units per assay (˜500 pmol substrate converted per h). All reagents except the peptide substrate were pre-incubated for 10 min. The peptide substrate (final concentration 10 μM) was then added and the plate was incubated for a further 30 min; 30 min was selected after initial linearity study where reaction was assessed after 10, 30, 60 or 90 min. The 30 min time point was selected. Respective control wells contained all reaction components without enzyme. The amount of 7-AMC produced was measured on a fluorescence microplate reader (Victor2; Perkin-Elmer Life sciences) at excitation and emission wavelengths of 355 nm and 460 nm, respectively. The concentration of isatin that inhibits the caspase activity by 50% (EC50) was estimated by non-linear regression analysis using GraphPad Prism (Version 4.0 for Windows, GraphPad Software, San Diego Calif. USA). All the isatins were analyzed in duplicate; the assays were repeated once. Known compounds 13-16 were included as reference compounds.
(§2) The data are the average for two runs, each of which was duplicated, at nine concentrations ranging from 5 pM to 500 μM; the drug concentration required to inhibit each enzyme by 50% (EC50) was obtained from nonlinear regression analysis of the inhibition profiles.

[2] = molecular target: T2, caspase 7 (Homo sapiens, UniProt P55210); test: Fluorimetric in vitro caspase inhibition assay (7-AMC), caspase 7; format: biochemical; details: recombinant human caspase 7, 10 μM Ac-DEVD-AMC
T2 construct: purchased Biomol International, UK
T2 sequence (P55210 24-198 limits assumed): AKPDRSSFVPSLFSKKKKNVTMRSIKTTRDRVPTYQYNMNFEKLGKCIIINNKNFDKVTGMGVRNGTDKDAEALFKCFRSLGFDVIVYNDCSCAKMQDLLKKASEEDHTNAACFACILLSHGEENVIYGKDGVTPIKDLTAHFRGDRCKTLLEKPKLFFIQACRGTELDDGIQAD
T2 sequence (P55210 207-303 limits assumed): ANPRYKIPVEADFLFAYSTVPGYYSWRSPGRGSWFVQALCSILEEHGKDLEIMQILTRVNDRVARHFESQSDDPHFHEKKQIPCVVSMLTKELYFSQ
Experimental: as §1, §2

[3] = molecular target: T3, caspase 1 (Homo sapiens, UniProt P29466); test: Fluorimetric in vitro caspase inhibition assay (7-AMC), caspase 1; format: biochemical; details: recombinant human caspase 1, 10 μM Ac-YVAD-AMC; read-out: Caspase EC50 (nM), 1/6/8: caspase 1
T3 construct: purchased Biomol International, UK
T3 sequence (P29466 120-297 limits assumed): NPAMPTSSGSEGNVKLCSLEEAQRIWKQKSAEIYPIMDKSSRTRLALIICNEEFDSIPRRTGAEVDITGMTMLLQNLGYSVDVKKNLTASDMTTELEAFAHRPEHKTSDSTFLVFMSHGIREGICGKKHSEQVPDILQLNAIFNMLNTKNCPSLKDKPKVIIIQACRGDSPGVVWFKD
T3 sequence (P29466 317-404 limits assumed): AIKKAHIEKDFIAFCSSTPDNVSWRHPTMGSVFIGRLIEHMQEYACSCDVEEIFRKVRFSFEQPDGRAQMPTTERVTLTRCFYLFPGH
Experimental: as §1, §2

[4] = molecular target: T4, caspase 8 (Homo sapiens, UniProt Q14790); test: Fluorimetric in vitro caspase inhibition assay (7-AMC), caspase 8; format: biochemical; details: recombinant human caspase 8, 10 μM Ac-IETD-AMC; read-out: Caspase EC50 (nM), 1/6/8: caspase 8
T4 construct: purchased Biomol International, UK
Experimental: as §1, §2

[5] = system: 38C13 lymphoma cells; test: Binding in 38C13 lymphoma cells undergoing treatment-induced apoptosis; format: cell-based, murine; details: 38C13 cells, 4-HC 1 μg/mL 24 h
Experimental: (left panel). Chemical structure and [^18F]11 binding in 38C13 lymphoma cells treated with 4-hydroperoxycyclophosphamide 4-HC (4-HC; 1 μg/mL; 24 h) to induce apoptosis. For all treated and control samples, radioactivity data were expressed as decay-corrected counts per milligram of total cellular protein. (right panel) The effect of 4-HC on the binding of the low affinity probe, [^18F]42, in 38C13 lymphoma cells. Data are mean±s.e.m.
A further aspect of the project has involved analysis of the weak isatin caspase-3 inhibitor N-[1-(2-Fluoroethyl)-1H-[1,2,3]-triazol-4-yl]isatin (compound 42). […] However, [^18F]42 lacks the pyrrolidine sulphonamide functionality that confers high affinity and selectivity for caspase-3. [^18F]42 was investigated in cell uptake assays for direct comparison with [^18F]11. The purpose of this was to examine the uptake profiles of the compounds in an effort to determine if uptake was the result of increased cell permeability, a characteristic trait of apoptotic cells, or the result of caspase-3 binding. Unlike [^18F]11, there was no increase in [^18F]42 binding following drug treatment (see FIG. 26), supporting the notion that [^18F]11 binding is due to caspase 3 activation.

[6] = In vivo metabolism studies, radio-HPLC of plasma, liver and urine; set-up: species or system C3H/hej mice
Experimental: [^18F]11 was injected intravenously into tumor-bearing mice and its tissue distribution was measured in selected tissues at 2, 15 and 60 min after injection. […] Furthermore, the in vivo metabolic stability of the radiotracer was determined from plasma and liver samples and, for [^18F]11, in urine samples.
In vivo metabolism studies were also performed in C3H/hej mice. […] Plasma, liver and urine samples were snap-frozen in liquid nitrogen and kept in pre-weighed scintillation counting tubes on dry ice prior to analysis.
Immediately prior to extraction the samples were thawed and placed on ice. For extraction, ice cold acetonitrile (1.5 mL) was added to plasma (0.2 mL); S9 incubation samples (3 mL) containing acetonitrile were also analysed. Each mixture was centrifuged (15493×g, 4° C., 3 min) and the resulting supernatant was evaporated to dryness under vacuum at 40° C. using a rotary evaporator. Liver samples were homogenized with ice cold acetonitrile (1.5 mL) using an IKA Ultra-Turrax T-25 homogeniser prior to centrifugation. The residues were then re-suspended in HPLC mobile phase (1.2 mL) and filtered through a Minisart hydrophilic syringe filter (0.2 μm) (Sartorius, Goettingen, Germany). Urine samples were diluted with HPLC mobile phase, filtered as above. The samples (1 mL) were then analyzed by radio-HPLC on an Agilent 1100 series HPLC system (Agilent Technologies, Stockport, UK) equipped with a γ-RAM Model 3 gamma-detector and the Laura software (IN/US Systems inc., Florida, USA).
The stationary phase comprised of a Waters μBondapak C18 reverse-phase column (300×7.8 mm). […] Furthermore, to assess the fraction of [^18F]9-derived radioactivity associated with the plasma and liver pellets after extraction versus that remaining in the HPLC injectate, the total volume of HPLC injectate was recorded and an aliquot (0.1 mL) removed for counting. The radioactivity in the 0.1 mL aliquot and the pellet were then analyzed by gamma counting (Packard Instruments).

[7] = In vivo biodistribution studies (Example 5); set-up: species or system C3H/hej mice; details: mice, i.v., 2-60 min
Experimental: The stability of novel compound [^18F]11 and known compound [^125I]14 in plasma and liver was measured over time following administration in mice. [^18F]11 was injected intravenously into tumor-bearing mice and its tissue distribution was measured in selected tissues at 2, 15 and 60 min after injection. [^125I]14 was injected intravenously into non-tumour bearing mice and its tissue distribution was measured at selected time points from 2 to 60 minutes after injection. Furthermore, the in vivo metabolic stability of the radiotracer was determined from plasma and liver samples and, for [^18F]11, in urine samples.
The radiation-induced murine fibrosarcoma (RIF-1) tumour cells^20 were maintained in RPMI 1640 medium (Invitrogen Ltd, Paisley, UK) supplemented with 10% fetal calf serum (BioWhittaker Europe Ltd, Verviers, Belgium), 2 mM L-glutamine, 100 U/mL penicillin, 100 μg/mL streptomycin and 0.25 μg/mL fungizone (Gibco, UK) at 37° C. in a humidified incubator with 5% CO2. All animal work was done by licensed investigators in accordance with the United Kingdom's “Guidance on the Operation of Animals (Scientific Procedures) Act 1986” (HMSO, London, United Kingdom, 1990) and in full compliance with government regulations and guidelines on the welfare of animals in experimental neoplasia^21. Tumors were established in mice by subcutaneous injection of 5×10^5 cells on the back of male C3H/hej mice (Harlan, Bicester, Oxfordshire, UK). Tumour growth was monitored every two days using electronic callipers, and tumor volume estimated using the equation (π/6)×L×W×D (L=length, W=width and D=depth). Animals were selected for biodistribution studies of [^18F]11 when the tumors reached ˜100-150 mm^3; biodistribution of [^125I]14 was done in non-tumor-bearing mice.
Mice were injected intravenously via the lateral vein with 0.08-0.13 mL of radioactivity (˜0.37 MBq of [^125I]14 or 3.7 MBq of [^18F]11) dissolved in phosphate buffered saline. At selected times after injection (2-60 min) mice were sacrificed by exsanguination via cardiac puncture under general anesthesia (isofluorane inhalation). Aliquots of heparinised blood were rapidly centrifuged (2000 g for 5 minutes) to obtain plasma. The radioactivity contained in tissues was determined by gamma-counting on a Cobra II Auto-Gamma counter (Packard Instruments, Meriden, Conn., USA) and expressed as a percentage of injected dose per gram of tissue (% ID/g). A minimum of three mice was used for each time point. All animals were treatment-naïve.

T4 sequence (Q14790 217-374 limits assumed): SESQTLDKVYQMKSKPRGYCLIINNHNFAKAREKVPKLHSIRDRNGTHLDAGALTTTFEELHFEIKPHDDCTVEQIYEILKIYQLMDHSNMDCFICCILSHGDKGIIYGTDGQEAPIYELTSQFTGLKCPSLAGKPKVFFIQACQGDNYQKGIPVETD
T4 sequence (Q14790 385-479 limits assumed): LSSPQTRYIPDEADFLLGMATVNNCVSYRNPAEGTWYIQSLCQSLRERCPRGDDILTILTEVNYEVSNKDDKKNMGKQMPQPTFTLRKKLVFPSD

- EC50 [1]: > 5000 nM
- EC50 [2]: 16.8 nM
- EC50 [3]: > 5000 nM
- EC50 [4]: > 5000 nM
Structure (SMILES): O=C1C(=O)N(Cc2ccc(F)cc2)c2ccc(S(=O)(=O)N3CCC[C@H]3COc3cc(F)cc(F)c3)cc21 [Compound 3, (S)-1-(4-Fluorobenzyl)-5-(2-(3,5-difluorophenoxymethyl)-pyrrolidine-1-sulfonyl)isatin]

Structure (SMILES): O=C1C(=O)N(c2cn(CCF)nn2)c2ccccc21 [[^18F]42, N-[1-(2-Fluoroethyl)-1H-[1,2,3]-triazol-4-yl]isatin]
- binding following drug treatment [5]: no increase

- parent as share of the radioactivity detected in the liver ([6]; 10 min after injection, n=3): < 15%
- time until parent fully metabolized in the liver ([6]; mice, after injection): ≤ 30 min
- time to complete elimination of parent from plasma ([6]; mice, i.v.): ≤ 10 min
Structure (SMILES): O=C1C(=O)N(Cc2ccc(I)cc2)c2ccc(S(=O)(=O)N3CCC[C@H]3COc3ccccc3)cc21 [[^125I]14, (S)-1-(4-iodobenzyl)-5-(2-phenoxymethyl-pyrrolidine-1-sulfonyl)isatin, reference compound]
- tissue distribution and elimination [7]: distributed rapidly to the major organs and was also rapidly eliminated
